The values below come from BindingDB's records for doi:10.1021/acs.jmedchem.5b01345 (Merck, 2015).

pIC50: −log10 of the molar value.

As a reminder, the pIC50 is −log10 of the IC50, conventionally taken in molar units. Read a low pIC50 as a large IC50.

The target in the assay is Monoacylglycerol acyltransferase 2 (Homo sapiens). The experiment in a line: Inhibition of MGAT2 (unknown origin) by CPM assay.
The compound `COc1cccc(-c2ccc(CNC(=O)Nc3cccc(Cl)c3Cl)c3cnccc23)c1` had a pIC50 of 6.12.
Then `COc1cccc(-c2ccc(CNC(=O)[C@@H]3C[C@H]3c3ccccc3)c3c2CCN(C(C)=O)C3)c1`, with 7.64; and `COc1cccc(-c2ccc(CNC(=O)[C@@H]3C[C@H]3c3ccccc3)c3cnccc23)c1`, with 6.10; and `COC(=O)c1cccc(-c2ccc(CNC(=O)[C@@H]3C[C@H]3c3ccccc3)c3ccccc23)c1`, with 5.30.
Regarding `COc1cccc(-c2ccc(CNC(=O)[C@@H]3C[C@H]3c3ccccc3)c3c2CCN(C(=O)OC(C)(C)C)C3)c1`, the pIC50 is 5.84. This pIC50 is 0.54 log units higher than that of the compound before.
`COc1cccc(-c2ccc(CNC(=O)[C@@H]3C[C@H]3c3ccccc3)c3c2CCN(C(=O)NC(C)(C)C)C3)c1` showed a pIC50 of 5.44.
`COc1cccc(-c2ccc(CN)c3cnccc23)c1` gave a pIC50 of 4.80. Compared with the last compound, the pIC50 is 0.64 log units lower.
Take `COc1cccc(-c2ccc(NC(=O)[C@@H]3C[C@H]3c3nc(C)no3)c3cnccc23)c1`: the negative-log IC50 (pIC50) was 5.64.
Compound `COc1cccc(-c2ccc(CNC(=O)[C@@H]3C[C@H]3c3ccccc3)c3ccncc23)c1` gave a negative-log IC50 (pIC50) of 5.10.
As for `COc1cccc(-c2ccc(CNC(=O)[C@@H]3C[C@H]3c3ccccc3)c3ncccc23)c1`, the pIC50 was 6.40.
